From PubChem BioAssay (NCI)
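Where inhibition never reached the appropriate level, the endpoint shown equals the highest concentration tested. Otherwise, values were interpolated linearly from a five-concentration, 48-hour dose response in 96-well plates. TGI marks complete inhibition of growth.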

Key:
Test in all cases: inhibition of tumour cell growth, NCI panel, 48 h
SW-620 colon = system: SW-620 colon
MCF7 breast = system: MCF7 breast
K-562 leukemia = system: K-562 leukemia
A498 renal = system: A498 renal
NCI-H226 lung = system: NCI-H226 lung
ACHN renal = system: ACHN renal
MDA-N = system: MDA-N
MDA-MB-231 breast = system: MDA-MB-231 breast
SR leukemia = system: SR leukemia
UACC-257 melanoma = system: UACC-257 melanoma
MALME-3M melanoma = system: MALME-3M melanoma
HOP-62 NSCLC = system: HOP-62 NSCLC
CCRF-CEM leukemia = system: CCRF-CEM leukemia
LOX IMVI melanoma = system: LOX IMVI melanoma
MDA-MB-435 = system: MDA-MB-435
NCI/ADR-RES ovarian = system: NCI/ADR-RES ovarian

Row | Structure (SMILES) | TGI (SW-620 colon) [µM] | TGI (MCF7 breast) [µM] | TGI (K-562 leukemia) [µM] | TGI (A498 renal) [µM] | TGI (NCI-H226 lung) [µM] | TGI (ACHN renal) [µM] | TGI (MDA-N) [µM] | TGI (MDA-MB-231 breast) [µM] | TGI (SR leukemia) [µM] | TGI (UACC-257 melanoma) [µM] | TGI (MALME-3M melanoma) [µM] | TGI (HOP-62 NSCLC) [µM] | TGI (CCRF-CEM leukemia) [µM] | TGI (LOX IMVI melanoma) [µM] | TGI (MDA-MB-435) [µM] | TGI (NCI/ADR-RES ovarian) [µM]
1 | CCOC(=O)CCC(NC(=O)C(N)c1ccc([N+](=O)[O-])cc1)C(=O)NC(CCC(=O)OCC)C(=O)OCC (stereo not drawn) | > 100 | > 100 | > 100 | > 100 | > 100 | > 100 | > 100 | > 100 | > 100 | > 100 | > 100 | > 100 |  |  |  | 
2 | N/C(=N\N=C\c1cc(I)cc(I)c1O)NO | > 100 | 74.7 | > 100 | > 100 | 44.5 | 74.1 | > 100 | > 100 |  | > 100 | 56.7 | > 100 | 52.4 | > 100 | > 100 | 8.41
3 | COc1cc(COC(=O)N2CC=CC2C(=O)O)c([N+](=O)[O-])cc1OC (stereo not drawn) | > 100 | > 100 | > 100 | > 100 | > 100 | > 100 | > 100 |  | > 100 | > 100 | > 100 | > 100 | > 100 |  | > 100 | > 100
4 | Cc1cccc(/C=N\NC(=S)N2CCCCC2)n1 | > 100 |  | > 100 | 0.347 | 0.747 | 0.863 | > 100 |  | 0.123 | 0.0589 | > 100 | 0.525 | 0.225 | 41.6 | > 100 | 0.43
5 | CC(=O)Oc1c(OC(C)C)c(C)c(O[Si](C(C)C)(C(C)C)C(C)C)c2[nH]c3ccccc3c12 | > 100 | > 100 | > 100 |  | > 100 | > 100 | > 100 | > 100 | 99.3 | > 100 |  | > 100 | > 100 | > 100 | > 100 | > 100
6 | CN1N=C(c2ccccc2)C(C(c2ccccc2[N+](=O)[O-])C2C(=O)N(C)N=C2c2ccccc2)C1=O (stereo not drawn) | > 100 | > 100 | > 100 | > 100 | > 96.5 | > 100 | > 100 | > 100 |  | > 100 | > 100 | > 100 | 60.1 | 77.4 | > 100 | > 100
7 | CCN(CC)c1ccc(C2Nc3ccc4ccccc4c3C3=C2C(=O)CCC3)cc1 (stereo not drawn) | > 100 | > 100 | > 100 | > 100 | > 100 | 33.6 | > 100 | 50.8 |  | > 100 | > 100 | 69.5 | > 100 |  | > 100 | > 100
